Columns and labels:
[1] = system: IFNβ, CXCL9, CXCL10, IFNγ; serum cytokines; test: Cytokine levels after subcutaneous injection in naïve mice; assay type: in vivo, C57BL/6 mice; conditions: 20 μg free, four hours
Method: To compare in vivo activity of free STING agonist and STING agonist-loaded exosomes beyond intratumoral dosing, naïve C57BL/6 mice were injected subcutaneously with PBS, exosomes, 20 μg of free 3-3 cAIMPdFSH or 0.2 μg 3-3 cAIMPdFSH loaded in PTGFRN-overexpressing exosomes. Four hours post-injection, lymph nodes, spleens, livers, and serum were collected and cytokine levels were measured.

[2] = system: B16F10 tumor and stroma area; test: IFNβ in situ hybridization and CD8, F4/80 immunohistochemistry in B16F10 tumor sections; assay type: in vivo, C57BL/6 mice; conditions: 20 μg free
Method: Four groups of C57BL/6 mice (5 mice per group) were inoculated subcutaneously with 1×10^6 B16F10 tumor cells. Eight days post-inoculation the mice were injected intratumorally with dose of exosomes, 20 μg of free 3-3 cAIMPdFSH, 0.1 μg of free 3-3 cAIMPdFSH, or 0.1 μg of 3-3 cAIMPdFSH loaded in PTGFN-overexpressing exosomes (EXOSTING™). Half of the mice were injected again intratumorally at day 11 after the inoculation. Four- or 24-hours post-injection of each injection, the tumors were collected, cytokine levels were measured by in situ hybridization, and CD8 or F4/80 positive cells were counted by immunohistochemistry. Tumor area and stroma area were identified histologically. IFNβ gene expression levels in the tumor (FIG. 77A) and stroma (FIG. 77B) area were increased in the 20 μg free STING agonist and 0.1 μg EXOSTING™ groups at 4h after single dose. […] F4/80 positive cells were decreased in 20 μg free STING agonist group, but cells were recovered in 0.1 μg EXOSTING™ group (FIG. 78B).

[3] = system: OVA-reactive splenic T-cells; test: OVA-specific memory T-cell response in E.G7-OVA model; assay type: in vivo, C57BL/6 mice
Method: STING pathway agonism in dendritic cells enhances antigen presentation, IFNβ production, and recruits CD8+ memory T-cells to elicit a durable adaptive immune response. To determine whether Exo STING could induce a memory T-cell response to a defined antigen, an antigen-specific T-cell response study was carried out using purified ovalbumin (OVA). C57BL/6 mice were injected intraperitoneally with 200 μg OVA mixed with either PBS, 20 μg ML RR-S2, 0.2 μg ML RR-S2, or 0.2 μg ML RR-S2 loaded in PTGFRN-overexpressing exosomes (n=4-10 mice per group). […] Isolated lymphocytes were analyzed by flow cytometry by measuring binding to immobilized tetrameric MHC class I bound to the OVA peptide SIINFEKL and phycoerythrin (PE) (iTAg Tetramer/PE—H-2 OVA; MBL®, Code #T03000). OVA-reactive memory T-cells were quantified by gating on PE, CD44, and CD8 positivity.
(§1) To test this hypothesis, C57BL/6 mice were inoculated subcutaneously with 1×10^6 E.G7-OVA cells (ATCC®; CRL-2113™), a murine T-cell lymphoma cell line engineered to stably express OVA and allow for modeling antigen-specific T-cell responses in mice (n=5 mice per group). […] Splenic T-cells from all groups were isolated and measured for OVA-specific reactivity as described in Example 11.

[4] = system: CD8+ T-cells, macrophages, and dendritic cells; test: Live CD45+ cell populations in B16F10 tumors 24 hours post-injection; assay type: in vivo, mice; conditions: 20 μg intratumoral
Method: Constitutive activation of the STING pathway results in robust pro-inflammatory signaling and may be toxic to cells and tissues (N Engl J Med. 2014 Aug. 7; 371(6): 507-518). Non-selective delivery of STING agonists in a tumor microenvironment may result in a robust IFNβ response, but if response is too strong or originates in undesired cell populations, effector cells such as CD8^+ T-cells may be killed or otherwise attenuated. B16F10 melanoma tumors were injected with PTGFRN-overexpressing exosomes labeled with Alexa Fluor™ 488 and removed one hour post-injection. Tumor-infiltrating lymphocytes were purified and measured for fluorescence at 488 nm to track exosome uptake. Only ˜20% of T-cells engulfed exosomes, while ˜90% and ˜70% of macrophages and dendritic cells, respectively, engulfed exosomes (FIG. 51A). […] 24 hours post-injection, the tumors were isolated, homogenized, and live CD45^+ cell populations were counted. […] Non-selective delivery of high doses of STING agonists therefore may attenuate desirable immune stimulatory responses.

E.G7-OVA cells = test: E.G7-OVA T-cell lymphoma tumor growth, intratumoral injection; assay type: in vivo, C57BL/6 mice
Method: as §1, with “group). Ten, 13, and 16 days post-inoculation the mice were injected intratumorally with PBS, 20 μg ML RR-S2, 0.2 μg ML RR-S2, or 0.2 μg ML RR-S2 loaded in PTGFRN-overexpressing exosomes).” for “group).”

SMILES	IFNβ gene expression in lymph nodes, spleens, livers [1]	CD8 positive T cells [2]	F4/80 positive cells [2]	level of IFNβ in tumor and stroma area ([2]; 4h after second doses)	IFNβ gene expression in tumor and stroma area ([2]; 4h after single dose)	memory T-cell response (OVA-specific) ([3]; 0.2 μg intratumoral)	memory T-cell response (OVA-specific) ([3]; 20 μg intratumoral)	CD8+ T-cells, macrophages, and dendritic cells in tumor [4]	tumor growth compared to PBS (E.G7-OVA cells; 0.2 μg intratumoral days 10, 13, 16)	tumor growth compared to PBS (E.G7-OVA cells; 20 μg intratumoral days 10, 13, 16)
Nc1ncnc2c1ncn2[C@@H]1O[C@@H]2COP(=O)(S)O[C@H]3[C@@H](F)[C@H](n4cnc5c(=O)[nH]cnc54)O[C@@H]3COP(O)(=S)O[C@H]2[C@H]1F (stereo partly shown) [3-3 cAIMPdFSH, 3′3′-cAIMPdFSH]	significantly elevated	not increased	decreased	significantly decreased	increased	–	–	–	–	–
Nc1ncnc2c1ncn2[C@@H]1O[C@@H]2COP(O)(=S)O[C@@H]3C(O)[C@@H](COP(O)(=S)O[C@H]2[C@H]1O)O[C@H]3n1cnc2c(N)ncnc21 (stereo partly shown) [ML RR-S2 CDA]	–	–	–	–	–	modest memory T-cell response	potent memory T-cell response	dramatically reduced compared to the other groups	moderately attenuated tumor growth	dramatically prevented tumor growth

— US20210322327A1, “EXTRACELLULAR VESICLES COMPRISING STING-AGONIST” (Codiak BioSciences, Inc., priority 2018, published 2021)
